Activity calls are given as the source filed them. The rule behind the calls is not given here.
Experiments:
D(2) dopamine receptor = D(2) dopamine receptor (Homo sapiens, UniProt P14416); assay: Antagonist activity at Dopamine D2 receptor (unknown origin); assay type: functional
[1] = target: T1, Muscarinic acetylcholine receptor M1 (Homo sapiens, UniProt P11229); assay: Agonist activity at Muscarinic M1 receptor (unknown origin); assay type: functional
T1 sequence (P11229 whole entry): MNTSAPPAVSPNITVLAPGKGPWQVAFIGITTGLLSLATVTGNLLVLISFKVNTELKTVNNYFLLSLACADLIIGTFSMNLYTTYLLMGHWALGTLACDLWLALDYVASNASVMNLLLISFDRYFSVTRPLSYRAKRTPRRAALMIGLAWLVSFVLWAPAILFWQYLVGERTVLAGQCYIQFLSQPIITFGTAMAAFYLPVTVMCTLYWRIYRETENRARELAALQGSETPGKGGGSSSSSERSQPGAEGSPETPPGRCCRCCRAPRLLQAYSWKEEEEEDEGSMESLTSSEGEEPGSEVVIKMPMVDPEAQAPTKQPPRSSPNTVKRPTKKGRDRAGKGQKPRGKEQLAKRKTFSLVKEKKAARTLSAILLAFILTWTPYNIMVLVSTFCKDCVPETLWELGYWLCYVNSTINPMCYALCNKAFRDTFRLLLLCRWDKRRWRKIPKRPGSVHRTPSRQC

[2] = target: Kappa-type opioid receptor (Homo sapiens, UniProt P41145); assay: Antagonist activity at KOR (unknown origin); assay type: functional
[3] = target: T2, 5-hydroxytryptamine receptor 2C (Homo sapiens, UniProt P28335); assay: Antagonist activity at 5-HT2C receptor (unknown origin); assay type: functional
T2 sequence (P28335 whole entry): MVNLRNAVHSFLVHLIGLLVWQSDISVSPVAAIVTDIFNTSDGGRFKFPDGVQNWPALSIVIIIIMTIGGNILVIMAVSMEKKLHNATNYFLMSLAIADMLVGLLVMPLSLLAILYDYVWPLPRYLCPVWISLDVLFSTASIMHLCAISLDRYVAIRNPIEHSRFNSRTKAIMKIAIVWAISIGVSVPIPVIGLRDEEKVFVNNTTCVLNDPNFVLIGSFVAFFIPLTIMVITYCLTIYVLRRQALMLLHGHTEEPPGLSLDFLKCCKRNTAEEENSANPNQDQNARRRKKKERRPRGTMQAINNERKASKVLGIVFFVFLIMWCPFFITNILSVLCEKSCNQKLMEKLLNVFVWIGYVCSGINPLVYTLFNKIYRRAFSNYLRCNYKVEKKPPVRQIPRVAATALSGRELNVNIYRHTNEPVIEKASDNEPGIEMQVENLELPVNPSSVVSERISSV

[4] = target: 3',5'-cyclic-AMP phosphodiesterase 4B (Homo sapiens, UniProt Q07343); assay: Inhibition of PDE4B (unknown origin)
[5] = target: cGMP-inhibited 3',5'-cyclic phosphodiesterase 3A (Homo sapiens, UniProt Q14432); assay: Inhibition of PDE3A (unknown origin)
Acetylcholinesterase = Acetylcholinesterase (Homo sapiens, UniProt P22303); assay: Inhibition of AChE (unknown origin)
[6] = target: Voltage-gated inwardly rectifying potassium channel KCNH2 (Homo sapiens, UniProt Q12809); assay: Inhibition of hERG (unknown origin); assay type: toxicity
[7] = Inhibition of AChR receptor (unknown origin); set-up: species or system Homo sapiens
Aurora kinase B = Aurora kinase B (Homo sapiens, UniProt Q96GD4); assay: Inhibition of Aurora B (unknown origin)
[8] = target: Sodium-dependent noradrenaline transporter (Homo sapiens, UniProt P23975); assay: Inhibition of NET (unknown origin)
NCI-H526 [9] = assay: Effect on cell cycle in human NCI-H526 cells assessed as cell accumulation at […] phase upto 1000 nM measured for 7 to 14 days by flow cytometry; assay type: functional, cell-based; details: time 7-14 day
[10] = Effect on cleaved PARP level in human NCI-H1417 cells assessed as relative expression at 1000 nM measured after 10 days by Western blot analysis (reference value: 0.19); assay type: functional; details: time 10 day
[11] = Effect on cleaved PARP level in human NCI-H1417 cells assessed as fold change at 1000 nM measured after 7 days by Western blot analysis (reference value: 1.00); assay type: functional; details: time 7 day
[12] = Effect on cleaved PARP level in human NCI-H1417 cells assessed as fold change at 1000 nM measured after 10 days by Western blot analysis (reference value: 1.00); assay type: functional; details: time 10 day
[13] = Effect on cleaved PARP level in human NCI-H526 cells assessed as fold change at 100 nM measured after 7 days by Western blot analysis (reference value: 1.00); assay type: functional; details: time 7 day
[14] = Effect on cleaved PARP level in human NCI-H526 cells assessed as fold change at 1000 nM measured after 7 days by Western blot analysis (reference value: 1.00); assay type: functional; details: time 7 day
[15] = Effect on cleaved PARP level in human NCI-H524 cells assessed as relative expression at 100 nM measured after 10 days by Western blot analysis (reference value: 0.95); assay type: functional; details: time 10 day
[16] = Effect on cleaved PARP level in human NCI-H69 cells assessed as fold change at 10 nM measured after 7 days by Western blot analysis (reference value: 1.00); assay type: functional; details: time 7 day
[17] = Effect on cleaved PARP level in human NCI-H69 cells assessed as fold change at 1000 nM measured after 10 days by Western blot analysis (reference value: 1.00); assay type: functional; details: time 10 day
[18] = Effect on cleaved PARP level in human NCI-H510 cells assessed as fold change at 1000 nM measured after 7 days by Western blot analysis (reference value: 1.00); assay type: functional, NCI-H510A; details: time 7 day
[19] = Effect on cleaved PARP level in human NCI-H146 cells assessed as relative expression at 10 nM measured after 14 days by Western blot analysis (reference value: 2.42); assay type: functional; details: time 14 day
[20] = Effect on cleaved PARP level in human NCI-H146 cells assessed as relative expression at 100 nM measured after 14 days by Western blot analysis (reference value: 2.42); assay type: functional; details: time 14 day
[21] = Toxicity in rat assessed as suppression of erythroid maturation in bone marrow measured for 28 days; details: in vivo, 672 h, time 28 day
[22] = Toxicity in rat assessed as declining clinical condition measured for 28 days; details: in vivo, 672 h, time 28 day
[23] = Toxicity in dog assessed as suppression of neutrophil in bone marrow measured for 28 days; assay type: cell-based, Canis lupus familiaris; details: 672 h, time 28 day
[24] = Toxicity in dog assessed as suppression of erythroid maturation in bone marrow measured for 28 days; set-up: species or system Canis lupus familiaris; details: in vivo, 672 h, time 28 day
SHP77 = assay: Effect on SYP gene expression in human SHP77 cells at 1 uM measured after 4 days by qRT-PCR analysis; assay type: functional, cell-based; details: time 4.0 day
NCI-H526 [25] = assay: In vivo inhibition of LSD1 in human NCI-H526 cells xenografted in nude mouse assessed as change in IGFBP2 gene expression measured after 24 hrs post single administration by qRT-PCR analysis; assay type: functional, organism-based; details: dose 0.06-135 mg/kg
NCI-H526 [26] = assay: In vivo inhibition of LSD1 in human NCI-H526 cells xenografted in nude mouse assessed as change in TSPAN8 gene expression administrated daily for 5 days by qRT-PCR analysis; assay type: functional, organism-based; details: dose 0.02-135 mg/kg, time 5.0 day

Sequence of Aurora kinase B (Q96GD4 whole entry): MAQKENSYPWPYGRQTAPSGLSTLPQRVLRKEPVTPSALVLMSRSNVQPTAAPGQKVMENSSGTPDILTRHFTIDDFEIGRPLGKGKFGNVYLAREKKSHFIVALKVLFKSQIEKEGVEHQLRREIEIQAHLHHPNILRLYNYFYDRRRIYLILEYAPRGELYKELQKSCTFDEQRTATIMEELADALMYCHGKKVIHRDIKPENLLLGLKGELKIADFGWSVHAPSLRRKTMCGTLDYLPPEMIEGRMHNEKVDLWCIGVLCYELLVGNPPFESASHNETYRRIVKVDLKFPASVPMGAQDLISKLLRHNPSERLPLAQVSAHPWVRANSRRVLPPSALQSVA
Sequence of Acetylcholinesterase (P22303 whole entry): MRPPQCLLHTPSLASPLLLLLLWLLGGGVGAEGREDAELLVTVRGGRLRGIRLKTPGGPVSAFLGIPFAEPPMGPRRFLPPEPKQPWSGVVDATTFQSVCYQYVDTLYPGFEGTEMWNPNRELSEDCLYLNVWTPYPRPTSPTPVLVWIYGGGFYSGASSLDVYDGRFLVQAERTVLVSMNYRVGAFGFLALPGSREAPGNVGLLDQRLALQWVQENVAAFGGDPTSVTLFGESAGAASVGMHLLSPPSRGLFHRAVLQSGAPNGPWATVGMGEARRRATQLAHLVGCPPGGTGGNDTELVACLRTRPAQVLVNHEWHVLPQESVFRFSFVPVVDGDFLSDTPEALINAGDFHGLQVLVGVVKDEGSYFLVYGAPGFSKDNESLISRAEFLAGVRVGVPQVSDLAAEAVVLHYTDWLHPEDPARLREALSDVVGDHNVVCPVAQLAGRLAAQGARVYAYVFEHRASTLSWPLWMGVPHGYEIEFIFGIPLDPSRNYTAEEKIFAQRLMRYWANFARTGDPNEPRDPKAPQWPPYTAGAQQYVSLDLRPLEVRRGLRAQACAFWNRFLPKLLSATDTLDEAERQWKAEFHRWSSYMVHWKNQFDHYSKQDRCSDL
Sequence of Sodium-dependent noradrenaline transporter (P23975 whole entry): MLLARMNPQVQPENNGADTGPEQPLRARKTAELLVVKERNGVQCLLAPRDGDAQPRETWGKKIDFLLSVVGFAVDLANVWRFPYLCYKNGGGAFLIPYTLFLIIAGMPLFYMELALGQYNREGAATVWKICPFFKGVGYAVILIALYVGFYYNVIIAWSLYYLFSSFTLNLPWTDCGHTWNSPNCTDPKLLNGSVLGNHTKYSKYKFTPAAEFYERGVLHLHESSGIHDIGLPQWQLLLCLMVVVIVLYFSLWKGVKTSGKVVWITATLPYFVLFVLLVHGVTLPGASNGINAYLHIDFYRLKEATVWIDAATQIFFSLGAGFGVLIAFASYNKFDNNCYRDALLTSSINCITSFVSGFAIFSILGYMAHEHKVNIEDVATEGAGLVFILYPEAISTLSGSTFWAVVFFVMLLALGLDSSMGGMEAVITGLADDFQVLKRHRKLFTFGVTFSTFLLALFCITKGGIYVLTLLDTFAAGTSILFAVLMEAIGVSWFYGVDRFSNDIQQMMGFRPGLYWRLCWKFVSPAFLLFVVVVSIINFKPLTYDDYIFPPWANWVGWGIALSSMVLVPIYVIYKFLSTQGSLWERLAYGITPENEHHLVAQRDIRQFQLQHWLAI
Sequence of Kappa-type opioid receptor (P41145 whole entry): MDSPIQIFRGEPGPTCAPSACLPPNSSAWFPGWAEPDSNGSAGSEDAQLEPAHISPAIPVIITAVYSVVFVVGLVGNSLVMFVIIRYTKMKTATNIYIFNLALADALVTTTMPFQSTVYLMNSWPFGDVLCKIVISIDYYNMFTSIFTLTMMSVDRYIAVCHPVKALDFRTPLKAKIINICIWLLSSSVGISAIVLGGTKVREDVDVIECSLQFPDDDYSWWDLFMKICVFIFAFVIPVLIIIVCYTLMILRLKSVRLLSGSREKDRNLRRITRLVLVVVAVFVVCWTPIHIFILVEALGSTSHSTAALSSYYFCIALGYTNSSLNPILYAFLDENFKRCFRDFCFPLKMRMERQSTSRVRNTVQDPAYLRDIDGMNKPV
Sequence of Voltage-gated inwardly rectifying potassium channel KCNH2 (Q12809 whole entry): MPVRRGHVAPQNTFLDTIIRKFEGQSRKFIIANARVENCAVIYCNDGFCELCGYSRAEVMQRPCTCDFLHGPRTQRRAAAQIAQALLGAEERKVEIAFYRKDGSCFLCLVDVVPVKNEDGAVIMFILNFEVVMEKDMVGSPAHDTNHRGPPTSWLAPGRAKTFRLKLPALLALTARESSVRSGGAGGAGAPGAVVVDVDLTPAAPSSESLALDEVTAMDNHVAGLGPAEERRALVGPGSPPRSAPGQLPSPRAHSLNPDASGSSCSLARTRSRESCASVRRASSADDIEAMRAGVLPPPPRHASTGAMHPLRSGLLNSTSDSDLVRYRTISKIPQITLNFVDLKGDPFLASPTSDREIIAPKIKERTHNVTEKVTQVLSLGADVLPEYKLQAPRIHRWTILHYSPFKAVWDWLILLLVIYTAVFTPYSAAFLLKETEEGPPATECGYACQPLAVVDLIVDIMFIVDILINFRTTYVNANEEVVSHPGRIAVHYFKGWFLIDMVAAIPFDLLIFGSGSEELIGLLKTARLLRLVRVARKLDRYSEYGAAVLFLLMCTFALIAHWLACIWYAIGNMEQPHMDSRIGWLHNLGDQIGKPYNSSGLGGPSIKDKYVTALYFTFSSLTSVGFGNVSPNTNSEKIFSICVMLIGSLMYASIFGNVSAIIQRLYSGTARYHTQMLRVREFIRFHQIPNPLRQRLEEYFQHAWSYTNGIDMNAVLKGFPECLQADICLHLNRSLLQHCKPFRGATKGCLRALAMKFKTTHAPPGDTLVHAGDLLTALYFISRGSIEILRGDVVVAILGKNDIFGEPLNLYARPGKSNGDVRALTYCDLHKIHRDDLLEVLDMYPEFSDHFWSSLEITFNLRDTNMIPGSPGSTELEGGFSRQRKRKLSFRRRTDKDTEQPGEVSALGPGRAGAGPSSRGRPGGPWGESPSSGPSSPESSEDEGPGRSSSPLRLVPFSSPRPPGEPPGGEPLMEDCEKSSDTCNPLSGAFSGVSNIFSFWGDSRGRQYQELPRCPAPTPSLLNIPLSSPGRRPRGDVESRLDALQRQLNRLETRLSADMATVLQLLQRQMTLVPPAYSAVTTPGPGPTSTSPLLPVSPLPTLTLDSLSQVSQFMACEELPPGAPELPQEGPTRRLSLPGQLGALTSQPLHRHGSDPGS
Sequence of D(2) dopamine receptor (P14416 whole entry): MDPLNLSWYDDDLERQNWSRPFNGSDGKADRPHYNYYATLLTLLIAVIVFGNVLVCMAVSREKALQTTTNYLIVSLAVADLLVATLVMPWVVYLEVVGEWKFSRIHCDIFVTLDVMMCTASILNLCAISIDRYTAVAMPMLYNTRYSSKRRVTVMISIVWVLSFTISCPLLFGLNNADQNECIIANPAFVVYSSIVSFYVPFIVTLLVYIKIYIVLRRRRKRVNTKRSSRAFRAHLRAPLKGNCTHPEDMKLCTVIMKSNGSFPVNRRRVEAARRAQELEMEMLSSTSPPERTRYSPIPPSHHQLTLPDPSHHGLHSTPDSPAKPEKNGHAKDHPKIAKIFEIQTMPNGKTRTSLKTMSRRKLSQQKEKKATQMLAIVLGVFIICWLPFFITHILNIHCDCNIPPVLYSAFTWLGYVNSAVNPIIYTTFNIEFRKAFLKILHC
Sequence of cGMP-inhibited 3',5'-cyclic phosphodiesterase 3A (Q14432 whole entry): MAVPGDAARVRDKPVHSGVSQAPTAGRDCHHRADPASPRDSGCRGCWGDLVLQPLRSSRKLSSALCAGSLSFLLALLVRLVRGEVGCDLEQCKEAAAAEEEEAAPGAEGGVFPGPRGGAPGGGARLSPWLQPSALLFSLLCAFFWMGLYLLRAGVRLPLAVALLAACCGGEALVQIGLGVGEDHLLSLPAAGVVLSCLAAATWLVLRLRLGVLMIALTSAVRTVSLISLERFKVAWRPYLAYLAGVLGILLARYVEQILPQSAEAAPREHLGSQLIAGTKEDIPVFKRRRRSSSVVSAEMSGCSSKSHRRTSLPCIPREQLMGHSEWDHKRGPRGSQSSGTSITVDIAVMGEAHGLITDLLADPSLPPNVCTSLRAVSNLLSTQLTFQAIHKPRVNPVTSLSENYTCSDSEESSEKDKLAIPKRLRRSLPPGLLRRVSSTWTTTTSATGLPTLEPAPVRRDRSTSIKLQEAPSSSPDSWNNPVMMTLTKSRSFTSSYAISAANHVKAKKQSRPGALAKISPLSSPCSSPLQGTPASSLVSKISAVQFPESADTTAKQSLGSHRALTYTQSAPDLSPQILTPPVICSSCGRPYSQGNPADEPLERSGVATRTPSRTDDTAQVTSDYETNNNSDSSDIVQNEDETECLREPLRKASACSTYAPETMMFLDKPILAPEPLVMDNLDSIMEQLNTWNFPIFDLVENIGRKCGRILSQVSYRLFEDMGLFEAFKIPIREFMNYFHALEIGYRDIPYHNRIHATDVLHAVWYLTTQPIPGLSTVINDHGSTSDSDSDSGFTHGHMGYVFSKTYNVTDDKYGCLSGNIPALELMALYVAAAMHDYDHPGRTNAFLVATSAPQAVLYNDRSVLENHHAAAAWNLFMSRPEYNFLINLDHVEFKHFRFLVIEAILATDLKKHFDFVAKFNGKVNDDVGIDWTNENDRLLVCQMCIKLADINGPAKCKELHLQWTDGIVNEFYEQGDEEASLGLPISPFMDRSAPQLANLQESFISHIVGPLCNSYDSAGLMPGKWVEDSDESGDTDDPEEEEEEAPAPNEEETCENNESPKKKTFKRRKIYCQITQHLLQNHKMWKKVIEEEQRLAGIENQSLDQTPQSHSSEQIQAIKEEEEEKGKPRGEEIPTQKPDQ

Compound | EC50 (D(2) dopamine receptor) [µM] | EC50 [1] [µM] | EC50 [2] [µM] | EC50 [3] [µM] | IC50 [5] [µM] | IC50 (Acetylcholinesterase) [µM] | IC50 [6] [µM] | IC50 [7] [µM] | IC50 (Aurora kinase B) [µM] | IC50 [8] [µM] | other results
c1ccc([C@@H]2C[C@H]2NC2CCNCC2)cc1 | > 100 | > 30 | > 100 | > 25 | > 100 | > 100 | > 30 | > 50 | > 32 | 25 | IC50 [4]: > 100 µM
O=C(O)c1ccc(CN2CCC(CN[C@@H]3C[C@H]3c3ccccc3)CC2)cc1 [GSK2879552] | > 100 | > 16 | > 100 | > 40 | > 100 | > 100 | > 25 | > 50 | > 32 | > 100 | Activity (NCI-H526 [9]): inactive; Activity [10]: 0.4; fold change (FC) [11]: 3.48; fold change (FC) [12]: 2.12; fold change (FC) [13]: 1.2; fold change (FC) [14]: 1.3; Activity [15]: 0.67; fold change (FC) [16]: 1.26; fold change (FC) [17]: 2.5; fold change (FC) [18]: 2.06; Activity [19]: 1.54; Activity [20]: 1.09; Activity [21]: Toxic; Activity [22]: Toxic; Activity [23]: Toxic; Activity [24]: Toxic; Activity (SHP77): inactive; inhibition (NCI-H526 [25]): Dose-Dependent Effect; inhibition (NCI-H526 [26]): Dose-Dependent Effect
